Measurements as given in US20230106032A1, “IMIDAZOTRIAZINES ACTING ON CANCER VIA INHIBITION OF CDK12” (Bayer Aktiengesellschaft, priority 2020, published 2023).

Columns and labels:
[1] = target: T1, CDK9/CycT1 (Homo sapiens, UniProt P50750); assay: CDK9/CycT1 high ATP kinase assay (TR-FRET, 2 mM ATP); type: biochemical; conditions: read-out: CDK9/CyclinT1, 2 mM ATP (high ATP) IC50-[mol/l] (median)
T1 construct: Recombinant full-length His-tagged human CDK9 and CycT1, expressed in insect cells; His; purchased Life Technologies PV4131; host or cells: insect cells
T1 sequence (P50750 whole entry): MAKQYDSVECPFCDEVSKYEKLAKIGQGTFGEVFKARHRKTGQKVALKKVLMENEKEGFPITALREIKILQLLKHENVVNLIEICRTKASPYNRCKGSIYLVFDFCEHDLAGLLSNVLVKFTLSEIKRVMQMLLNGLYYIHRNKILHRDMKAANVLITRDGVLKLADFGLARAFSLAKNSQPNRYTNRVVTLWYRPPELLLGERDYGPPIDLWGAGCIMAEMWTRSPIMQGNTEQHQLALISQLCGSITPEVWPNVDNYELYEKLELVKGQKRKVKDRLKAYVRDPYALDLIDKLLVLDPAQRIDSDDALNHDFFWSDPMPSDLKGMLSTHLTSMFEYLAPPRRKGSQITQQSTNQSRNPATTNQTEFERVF
T1 sequence (O60563 whole entry partner): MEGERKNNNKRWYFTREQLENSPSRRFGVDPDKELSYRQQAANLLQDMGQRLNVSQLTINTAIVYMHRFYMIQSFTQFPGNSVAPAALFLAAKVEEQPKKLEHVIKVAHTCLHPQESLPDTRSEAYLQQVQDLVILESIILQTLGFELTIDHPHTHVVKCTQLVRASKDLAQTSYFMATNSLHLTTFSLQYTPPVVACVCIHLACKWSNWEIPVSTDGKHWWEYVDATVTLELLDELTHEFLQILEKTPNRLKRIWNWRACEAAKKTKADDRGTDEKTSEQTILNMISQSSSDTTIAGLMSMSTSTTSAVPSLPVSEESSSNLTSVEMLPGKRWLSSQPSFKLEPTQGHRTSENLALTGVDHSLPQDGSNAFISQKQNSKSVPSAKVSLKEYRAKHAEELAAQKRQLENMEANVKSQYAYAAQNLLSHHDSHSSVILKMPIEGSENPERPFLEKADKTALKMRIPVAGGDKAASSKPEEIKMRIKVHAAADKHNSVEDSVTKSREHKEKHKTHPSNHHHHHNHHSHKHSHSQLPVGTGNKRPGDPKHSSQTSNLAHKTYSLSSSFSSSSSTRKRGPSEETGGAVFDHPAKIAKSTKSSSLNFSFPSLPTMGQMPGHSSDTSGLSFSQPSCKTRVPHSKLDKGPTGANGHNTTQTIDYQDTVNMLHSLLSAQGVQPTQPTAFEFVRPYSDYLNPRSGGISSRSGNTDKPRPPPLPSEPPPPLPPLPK
Procedure: CDK9/CycT1-inhibitory activity of compounds of the present invention at a high ATP concentration after preincubation of enzyme and test compounds was quantified employing the CDK9/CycT1 TR-FRET assay as described in the following paragraphs.
Recombinant full-length His-tagged human CDK9 and CycT1, expressed in insect cells and purified by Ni-NTA affinity chromatography, were purchased from Life Technologies (Cat. No PV4131). As substrate for the kinase reaction biotinylated peptide biotin-Ttds-YISPLKSPYKISEG (C-terminus in amide form) was used which can be purchased e.g. form the company JERINI peptide technologies (Berlin, Germany).
For the assay 50 nanoL of a 100 fold concentrated solution of the test compound in DMSO was pipetted into either a black low volume 384 well microtiter plate or a black 1536 well microtiter plate (both Greiner Bio-One, Frickenhausen, Germany), 2 microL of a solution of CDK9/CycT1 in aqueous assay buffer [50 millimol/L Tris/HCl pH 8.0, 10 millimol/L MgCl2, 1.0 millimol/L dithiothreitol, 0.1 millimol/L sodium ortho-vanadate, 0.01% (v/v) Nonidet-P40 (Sigma)] were added and the mixture was incubated for 15 min at 22° C. to allow pre-binding of the test compounds to the enzyme before the start of the kinase reaction. Then the kinase reaction was started by the addition of 3 microL of a solution of adenosine-tri-phosphate (ATP, 3.3 millimol/L=> final conc. in the 5 microL assay volume is 2 millimol/L) and substrate (1.25 micromol/L=> final conc. in the 5 microL assay volume is 0.75 micromol/L) in assay buffer and the resulting mixture was incubated for a reaction time of 25 min at 22° C. The concentration of CDK9/CycT1 was adjusted depending of the activity of the enzyme lot and was chosen appropriate to have the assay in the linear range, typical concentrations were in the range of 0.5 microg/ml. The reaction was stopped by the addition of 3 microL of a solution of TR-FRET detection reagents (0.33 micromol/L streptavidine-XL665 [Cisbio Bioassays, Codolet, France] and 1.67 nanomol/L anti-RB(pSer807/pSer8l 1)-antibody from BD Pharmingen [#558389] and 2 nanomol/L LANCE EU-W1024 labeled anti-mouse IgG antibody [Perkin-Elmer, product no. AD0077]) in an aqueous EDTA-solution (167 millimol/L EDTA, 0.2% (w/v) bovine serum albumin in 100 millimol/L HEPES pH 7.5).
(§1) The resulting mixture was incubated 1 h at 22° C. to allow the formation of complex between the phosphorylated biotinylated peptide and the detection reagents. Subsequently the amount of phosphorylated substrate was evaluated by measurement of the resonance energy transfer from the Eu-chelate to the streptavidine-XL. Therefore, the fluorescence emissions at 620 nm and 665 nm after excitation at 350 nm was measured in a TR-FRET reader, e.g. a Pherastar (BMG Labtechnologies, Offenburg, Germany) or a Viewlux (Perkin-Elmer). The ratio of the emissions at 665 nm and at […] was taken as the measure for the amount of phosphorylated substrate. The data were normalised (enzyme reaction without inhibitor=0% inhibition, all other assay components but no enzyme=100% inhibition).

[2] = target: T2, CDK12/CycK (Homo sapiens, UniProt Q9NYV4); assay: CDK12/CycK high ATP kinase assay (TR-FRET, 2 mM ATP); type: biochemical; conditions: read-out: CDK12/CyclinK, 2 mM ATP (high ATP), IC50-[mol/l] (median)
T2 construct: His-CDK12 (aa Q696-S1082); made in house; host or cells: Hi-5 insect cells (baculovirus co-infection with CAK1)
T2 sequence (Q9NYV4 with tags, fused parts or gaps): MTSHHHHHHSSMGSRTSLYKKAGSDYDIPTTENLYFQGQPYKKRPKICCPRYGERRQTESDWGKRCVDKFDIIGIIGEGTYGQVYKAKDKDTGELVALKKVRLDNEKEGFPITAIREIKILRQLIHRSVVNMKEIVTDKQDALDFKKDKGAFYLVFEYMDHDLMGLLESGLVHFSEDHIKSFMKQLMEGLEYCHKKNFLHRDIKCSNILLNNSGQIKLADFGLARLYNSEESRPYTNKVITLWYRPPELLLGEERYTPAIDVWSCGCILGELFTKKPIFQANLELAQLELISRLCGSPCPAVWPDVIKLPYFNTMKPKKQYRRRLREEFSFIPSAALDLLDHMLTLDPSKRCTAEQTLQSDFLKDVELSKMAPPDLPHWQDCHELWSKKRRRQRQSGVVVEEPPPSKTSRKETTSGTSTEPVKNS
T2 sequence (O75909 with tags, fused parts or gaps partner limits assumed): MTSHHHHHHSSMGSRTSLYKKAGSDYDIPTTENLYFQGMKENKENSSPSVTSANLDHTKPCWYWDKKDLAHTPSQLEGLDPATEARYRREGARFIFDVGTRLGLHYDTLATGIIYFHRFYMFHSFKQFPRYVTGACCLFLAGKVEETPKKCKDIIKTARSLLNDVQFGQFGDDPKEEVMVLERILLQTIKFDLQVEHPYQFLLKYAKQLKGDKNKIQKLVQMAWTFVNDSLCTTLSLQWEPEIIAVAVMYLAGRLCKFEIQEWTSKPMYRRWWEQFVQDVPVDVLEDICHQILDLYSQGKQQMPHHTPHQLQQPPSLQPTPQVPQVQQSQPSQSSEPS
Description: In the context of the present invention, the term “IC50 CDK12 hATP” refers to the IC50 values obtained according to the assay described in this section (2.2) herein below, i.e. the IC50 values for the inhibition of CDK12 at high ATP.
CDK12/CycK-inhibitory activity of compounds of the present invention at 2 millimol/L adenosine-tri-phosphate (ATP) was quantified employing the TR-FRET (TR-FRET=Time Resolved Fluorescence Energy Transfer) based CDK12/CycK activity inhibition assay as described in the following paragraphs.
A complex of human recombinant CDK12 and human recombinant CycK (both N-terminally His-tagged, expression and purification as described above) was used as enzyme. As substrate for the kinase reaction biotinylated peptide biotin-Ahx-KFELLPTPPLSPSRRSGL (C-terminus in amid form) was used which can be purchased e.g. form the company Biosyntan (Berlin-Buch, Germany).
For the assay 50 nanoL of a 100 fold concentrated solution of the test compound in DMSO was pipetted into either a black low volume 384 well microtiter plate or a black 1536 well microtiter plate (both Greiner Bio-One, Frickenhausen, Germany), 2 microL of a solution of CDK12/CycK in aqueous assay buffer [25 millimol/L HEPES pH 7.5, 20 millimol/L MgCl2, 5 millimol/L ß-glycerophosphate, 2 millimol/L EGTA, 1.0 millimol/L dithiothreitol, 0.01% (v/v) Nonidet-P40 (Sigma), 0.01% (w/v) bovine serum albumin] were added and the mixture was incubated for 15 min at 22° C. to allow pre-binding of the test compounds to the enzyme before the start of the kinase reaction. Then the kinase reaction was started by the addition of 3 microL of a solution ATP (3.33 millimol/L=> final conc. in the 5 microL assay volume is 2 millimol/L) and substrate (1.67 micromol/L=> final conc. in the 5 microL assay volume is 1 micromol/L) in assay buffer and the resulting mixture was incubated for a reaction time of 60 min at 22° C. The concentration of CDK12/CycK was adjusted depending of the activity of the enzyme lot and was chosen appropriate to have the assay in the linear range, typical concentrations were about 0.75 nanomol/L. The reaction was stopped by the addition of 3 microL of a solution of TR-FRET detection reagents (125 nanomol/L streptavidine-XL665 [Cisbio Bioassays, Codolet, France] and 0.67 nanomol/L anti-Phospho-c-Myc (Ser 62) (E1J4K)-antibody from Cell Signalling [#13748] and 2 nanomol/L LANCE EU-W1024 labeled anti-rabbit IgG antibody [Perkin-Elmer, product no. 0083]) in an aqueous EDTA-solution (133 millimol/L EDTA, 0.27% (w/v) bovine serum albumin in 66.7 millimol/L HEPES pH 7.5).
as §1, with “Pherastar FS” for “Pherastar”

IC50 [1] | IC50 [2] | Compound
17.7 µM | 0.99 µM | C[C@@H]1CN(c2nc(NCc3nc4ccccc4[nH]3)c3ncc(Br)n3n2)C[C@H](C)O1 [Example 4, N-[(1H-benzimidazol-2-yl)methyl]-7-bromo-2-[rel-(2R,6S)-2,6-dimethylmorpholin-4-yl]imidazo[2,1-f][1,2,4]triazin-4-amine]
4.62 µM | 0.0405 µM | C[C@@H]1CN(c2nc(NCc3nc4c(F)c(F)ccc4[nH]3)c3ncc(C(F)(F)F)n3n2)C[C@H](C)N1 [Example 29, N-[(4,5-difluoro-1H-benzimidazol-2-yl)methyl]-2-[rel-(3R,5S)-3,5-dimethylpiperazin-1-yl]-7-(trifluoromethyl)imidazo[2,1-f][1,2,4]triazin-4-amine]
> 20 µM | 0.737 µM | C[C@@H]1CN(c2nc(NCc3nc4ccccc4[nH]3)c3ncc(C(F)(F)F)n3n2)C[C@H](C)N1.O=CO [Example 24, N-[(1H-benzimidazol-2-yl)methyl]-2-[rel-(3R,5S)-3,5-dimethylpiperazin-1-yl]-7-(trifluoromethyl)imidazo[2,1-f][1,2,4]triazin-4-amine Formate (1/1)]
> 20 µM | 4.9 µM | C[C@@H]1CN(c2nc(NCc3nc4ccccc4[nH]3)c3ncc(Br)n3n2)C[C@H](C)N1 [Example 9, N-[(1H-benzimidazol-2-yl)methyl]-7-bromo-2-[rel-(3R,5S)-3,5-dimethylpiperazin-1-yl]imidazo[2,1-f][1,2,4]triazin-4-amine]
14.2 µM | 1.8 µM | C[C@@H]1CN(c2nc(NCc3nc4c(F)cccc4[nH]3)c3ncc(Br)n3n2)C[C@H](C)N1 [Example 18, 7-bromo-2-[rel-(3R,5S)-3,5-dimethylpiperazin-1-yl]-N-[(4-fluoro-1H-benzimidazol-2-yl)methyl]imidazo[2,1-f][1,2,4]triazin-4-amine]
> 20 µM | 6.43 µM | C[C@@H]1CN(c2nc(NCc3nc4cc(F)ccc4[nH]3)c3ncc(Br)n3n2)C[C@H](C)N1 [Example 19, 7-bromo-2-[rel-(3R,5S)-3,5-dimethylpiperazin-1-yl]-N-[(5-fluoro-1H-benzimidazol-2-yl)methyl]imidazo[2,1-f][1,2,4]triazin-4-amine]
> 20 µM | 10.8 µM | CN1CCN(c2nc(NCc3nc4c(F)cccc4[nH]3)c3ncc(Br)n3n2)CC1 [Example 23, 7-bromo-N-[(4-fluoro-1H-benzimidazol-2-yl)methyl]-2-(4-methylpiperazin-1-yl)imidazo[2,1-f][1,2,4]triazin-4-amine]

More lines, now with the values behind:

Compound | IC50 [1] | IC50 [2]
CN1CCN(c2nc(NCc3nc4cc(F)ccc4[nH]3)c3ncc(Br)n3n2)CC1 [Example 21, 7-bromo-N-[(5-fluoro-1H-benzimidazol-2-yl)methyl]-2-(4-methylpiperazin-1-yl)imidazo[2,1-f][1,2,4]triazin-4-amine] | > 20 µM | 16.5 µM
Fc1ccc2[nH]c(CNc3nc(N4CCNCC4)nn4c(Br)cnc34)nc2c1F [Example 10, 7-bromo-N-[(4,5-difluoro-1H-benzimidazol-2-yl)methyl]-2-(piperazin-1-yl)imidazo[2,1-f][1,2,4]triazin-4-amine] | 12.4 µM | 1.37 µM
N#Cc1cnc2c(NCc3nc4ccccc4[nH]3)nc(N3CCOCC3)nn12 [Example 2, 4-{[(1H-benzimidazol-2-yl)methyl]amino}-2-(morpholin-4-yl)imidazo[2,1-f][1,2,4]triazine-7-carbonitrile] | > 20 µM | 6.98 µM
OC[C@@H]1CCCCN1c1nc(NCc2nc3ccccc3[nH]2)c2ncc(Br)n2n1 [Example 17, [(2S)-1-(4-{[(1H-benzimidazol-2-yl)methyl]amino}-7-bromoimidazo[2,1-f][1,2,4]triazin-2-yl)piperidin-2-yl]methanol] | 4.11 µM | 0.116 µM
CN(CC(C)(C)O)c1nc(NCc2nc3ccccc3[nH]2)c2ncc(C(F)(F)F)n2n1 [Example 30, 1-[{4-[(1H-benzimidazol-2-ylmethyl)amino]-7-(trifluoromethyl)imidazo[2,1-f][1,2,4]triazin-2-yl}(methyl)amino]-2-methylpropan-2-ol] | 10.8 µM | 0.163 µM
CN1CCN(c2nc(NCc3nc4c(F)c(F)ccc4[nH]3)c3ncc(C(F)(F)F)n3n2)CC1 [Example 28, N-[(4,5-difluoro-1H-benzimidazol-2-yl)methyl]-2-(4-methylpiperazin-1-yl)-7-(trifluoromethyl)imidazo[2,1-f][1,2,4]triazin-4-amine] | > 20 µM | 1.68 µM
CN1CCN(c2nc(NCc3nc4ccccc4[nH]3)c3ncc(Br)n3n2)CC1 [Example 6, N-[(1H-benzimidazol-2-yl)methyl]-7-bromo-2-(4-methylpiperazin-1-yl)imidazo[2,1-f][1,2,4]triazin-4-amine] | > 20 µM | > 18.6 µM
Brc1cnc2c(NCc3nc4ccccc4[nH]3)nc(N3CCOCC3)nn12 [Example 1, N-[(1H-benzimidazol-2-yl)methyl]-7-bromo-2-(morpholin-4-yl)imidazo[2,1-f][1,2,4]triazin-4-amine] | > 20 µM | 5.11 µM
COc1cccc2[nH]c(CNc3nc(N4CCOCC4)nn4c(Br)cnc34)nc12 [Example 13, 7-bromo-N-[(4-methoxy-1H-benzimidazol-2-yl)methyl]-2-(morpholin-4-yl)imidazo[2,1-f][1,2,4]triazin-4-amine] | > 18.9 µM | 1.33 µM
